Measured values reported in the supplement of paper PMC10307832.

Legend:
Assay in all cases: relative viability (nuclei count vs DMSO), 5 days (fraction); higher = more cells survive
QS11 + Palbociclib = compound: C1CC2=C(C1)C=C(C=C2)OC3=NC(=C4C(=N3)N(C=N4)CC5=CC=C(C=C5)C6=CC=CC=C6)N[C@@H](CC7=CC=CC=C7)CO [QS11] + CC(=O)c1c(C)c2cnc(Nc3ccc(N4CCNCC4)cn3)nc2n(C2CCCC2)c1=O [Palbociclib] (partner 0.5 µM)
Method in brief: (§1)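 Relative viability equals treated-well nuclei counts divided by vehicle-well nuclei counts. Counts came from 4× images of lung cancer cell lines grown in 1536-well plates for 5 days after pin-tool dosing on the day after seeding. Dosing used one drug alone or a fixed anchor-drug dose plus five library-drug doses (not always all listed) in √10 steps, and values are medians of duplicate plates.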

AZ628 + Olaparib = compound: CC1=C(C=C(C=C1)NC(=O)C2=CC(=CC=C2)C(C)(C)C#N)NC3=CC4=C(C=C3)N=CN(C4=O)C [AZ628] + O=C(c1cc(Cc2n[nH]c(=O)c3ccccc23)ccc1F)N1CCN(C(=O)C2CC2)CC1 [Olaparib] (partner 8 µM)
Method in brief: as §1

[1] = compound: C[As](C)SC[C@H](NC(=O)CC[C@H](N)C(=O)O)C(=O)NCC(=O)O [Darinaparsin] + N=C(N)NC(=N)NCCc1ccccc1 [Phenformin] (partner 250 µM)
Method in brief: as §1

AZ628 + Phenformin = compound: CC1=C(C=C(C=C1)NC(=O)C2=CC(=CC=C2)C(C)(C)C#N)NC3=CC4=C(C=C3)N=CN(C4=O)C [AZ628] + N=C(N)NC(=N)NCCc1ccccc1 [Phenformin] (partner 250 µM)
Method in brief: as §1

Row | Cell Line | relative viability (QS11 + Palbociclib; first compound 0.08 µM) | relative viability (QS11 + Palbociclib; first compound 0.253 µM) | relative viability (QS11 + Palbociclib; first compound 0.8 µM) | relative viability (QS11 + Palbociclib; first compound 2.53 µM) | relative viability (QS11 + Palbociclib; first compound 8 µM) | relative viability (AZ628 + Olaparib; first compound 0.08 µM) | relative viability (AZ628 + Olaparib; first compound 0.253 µM) | relative viability (AZ628 + Olaparib; first compound 0.8 µM) | relative viability (AZ628 + Olaparib; first compound 2.53 µM) | relative viability (AZ628 + Olaparib; first compound 8 µM) | relative viability ([1]; first compound 0.08 µM) | relative viability ([1]; first compound 0.8 µM) | relative viability ([1]; first compound 2.53 µM) | relative viability ([1]; first compound 8 µM) | relative viability (AZ628 + Phenformin; first compound 0.08 µM) | relative viability (AZ628 + Phenformin; first compound 0.253 µM) | relative viability (AZ628 + Phenformin; first compound 0.8 µM) | relative viability (AZ628 + Phenformin; first compound 2.53 µM) | relative viability (AZ628 + Phenformin; first compound 8 µM)
1 | LXF-289 | 0.639 | 0.634 | 0.502 | 0.564 | 0.621 | 1.13 | 1.01 | 0.922 | 1.08 | 0.756 | 0.556 | 0.523 | 0.471 | 0.556 | 0.527 | 0.499 | 0.473 | 0.501 | 0.362
2 | NCI-H1437 | 0.299 | 0.351 | 0.239 | 0.287 | 0.239 | 0.584 | 0.605 | 0.767 | 0.597 | 0.54 | 0.327 | 0.298 | 0.358 | 0.281 | 0.369 | 0.266 | 0.262 | 0.331 | 0.318
3 | NCI-H838 | 0.213 | 0.187 | 0.191 | 0.223 | 0.213 | 0.765 | 0.821 | 0.713 | 0.727 | 0.623 | 0.596 | 0.508 | 0.486 | 0.638 | 0.666 | 0.551 | 0.502 | 0.493 | 0.474
4 | NCI-H650 | 0.328 | 0.34 | 0.304 | 0.286 | 0.327 | 0.43 | 0.462 | 0.482 | 0.512 | 0.627 | 0.476 | 0.479 | 0.428 | 0.484 | 0.536 | 0.471 | 0.552 | 0.509 | 0.498
5 | LK-2 | 0.723 | 0.826 | 0.777 | 0.507 | 0.705 | 0.874 | 0.549 | 0.684 | 0.689 | 0.309 | 0.399 |  | 0.346 | 0.429 | 0.508 | 0.312 | 0.557 | 0.304 | 0.172
6 | NCI-H520 | 0.211 | 0.208 | 0.268 | 0.208 | 0.204 | 0.358 | 0.32 | 0.325 | 0.396 | 0.23 | 0.669 | 0.481 | 0.453 | 0.625 | 0.583 | 0.452 | 0.64 | 0.476 | 0.398
7 | H3255 | 0.327 | 0.363 | 0.301 | 0.31 | 0.298 | 0.561 | 0.557 | 0.596 | 0.611 | 0.427 | 0.381 | 0.384 | 0.363 | 0.332 | 0.41 | 0.33 | 0.337 | 0.393 | 0.302
8 | PC-14 |  | 0.608 | 0.455 | 0.44 | 0.434 | 0.376 | 0.258 | 0.243 | 0.259 | 0.16 | 0.653 | 0.55 | 0.716 | 0.698 | 0.638 | 0.438 | 0.498 | 0.599 | 0.416
9 | HCC-78 | 0.462 | 0.531 | 0.464 | 0.457 | 0.358 | 0.94 | 0.808 | 0.807 | 0.786 | 0.903 | 0.728 | 0.772 | 0.819 | 0.745 | 0.814 | 0.631 | 0.767 | 0.705 | 0.726
10 | CAL-12T | 0.431 | 0.568 | 0.409 | 0.499 | 0.264 | 0.713 | 0.68 | 0.781 | 0.637 | 0.457 | 0.657 | 0.534 | 0.478 | 0.605 | 0.553 | 0.492 | 0.335 | 0.414 | 0.336
11 | NCI-H3122 | 0.171 | 0.225 |  | 0.188 | 0.18 | 0.652 | 0.634 | 0.561 | 0.565 | 0.379 | 0.435 | 0.328 | 0.378 | 0.411 | 0.366 | 0.288 | 0.305 | 0.31 | 0.289
12 | NCI-H661 | 0.379 | 0.374 | 0.332 | 0.402 | 0.34 | 0.748 | 0.702 | 0.699 | 0.727 | 0.644 | 0.261 | 0.25 | 0.299 | 0.275 | 0.283 | 0.266 | 0.278 | 0.292 | 0.275
13 | NCI-H727 | 0.694 | 0.73 | 0.698 | 0.637 | 0.699 | 0.603 |  |  | 0.506 | 0.333 | 0.405 | 0.416 | 0.569 | 0.475 | 0.422 | 0.386 | 0.374 | 0.329 | 0.341
14 | NCI-H1666 | 0.641 | 0.651 | 0.586 | 0.621 | 0.516 | 0.733 | 0.745 | 0.671 | 0.739 | 0.782 | 0.623 | 0.545 | 0.617 | 0.575 | 0.584 | 0.582 | 0.543 | 0.518 | 0.514
15 | COR-L23 | 0.319 | 0.298 | 0.274 | 0.196 | 0.181 | 0.459 | 0.365 | 0.444 | 0.448 | 0.317 | 0.544 | 0.405 | 0.379 | 0.566 | 0.54 | 0.476 | 0.433 | 0.445 | 0.333
16 | NCI-H460 | 0.426 | 0.093 | 0.0461 | 0.0817 | 0.0731 | 0.543 | 0.397 | 0.342 | 0.414 | 0.371 | 0.553 | 0.557 | 0.506 | 0.884 | 0.52 | 0.511 | 0.452 | 0.404 | 0.189
17 | SK-MES-1 | 0.322 | 0.285 | 0.268 | 0.311 | 0.295 | 0.693 | 0.824 | 0.9 | 0.737 | 0.392 | 0.783 | 0.592 | 0.594 | 0.667 | 0.715 | 0.661 | 0.619 | 0.675 | 0.466
